Tested on: PC3 cells
Experiment: NAMPT Cell Proliferation Assay
Format: cell-based
Settings: Homo sapiens, PC-3, 120 h, 5 days incubation, cell viability by Cell Titer Glo
Experimental: NAMPT Cell Proliferation Assay
PC3 cells were seeded in 96-well black plates (Corning #3904) at 500 cells)Owell in 90 µl of RPMI media containing 10% heat-inactivated FBS and incubated overnight at 37° C. and 5% CO2 to allow cells to attach to wells. The following day, test compounds were serially diluted in neat DMSO to 1000× final concentrations prior to dilution with RPMI media to 10× and 1% DMSO. […] of the 10× compounds were then transferred to wells containing cells to produce a dose response of 10-fold dilutions from […] to 1×10^−[…]. Cells were incubated for 5 days at 37° C. and 5% CO2, then cell viability was measured using Cell Titer Glo reagent (Promega #G7571). Percent inhibition values were calculated and fitted to a sigmoidal dose response curves using Assay Explorer software to determine IC50s.

| Structure (SMILES) | IC50 [nM] |
| --- | --- |
| O=C(Nc1ccc(C2CCN(C(=O)c3ccc(F)cc3)CC2)cc1)[C@H]1CCN(c2cccnn2)C1 [Example 689, (3S)-N-{4-[1-(4-fluorobenzoyl)piperidin-4-yl]phenyl}-1-(pyridazin-3-yl)pyrrolidine-3-carboxamide] | 9.68 |
| Cc1cccc(C(=O)N2CCC(c3ccc(NC(=O)C4CN(c5cccnn5)C4)cc3)CC2)c1C [Example 357, N-{4-[1-(2,3-dimethylbenzoyl)piperidin-4-yl]phenyl}-1-(pyridazin-3-yl)azetidine-3-carboxamide] | 1.47 |
| Cc1ccc(C(=O)N2CCC(c3ccc(NC(=O)C4CN(c5cccnn5)C4)cc3)CC2)c(C)c1 [Example 358, N-{4-[1-(2,4-dimethylbenzoyl)piperidin-4-yl]phenyl}-1-(pyridazin-3-yl)azetidine-3-carboxamide] | 1.86 |
| CC(C)CC(=O)N1CC[C@@H](Oc2ccc(NC(=O)C3CN(c4ccnnc4)C3)cc2)C1 [Example 478, N-(4-{[(3R)-1-(3-methylbutanoyl)pyrrolidin-3-yl]oxy}phenyl)-1-(pyridazin-4-yl)azetidine-3-carboxamide] | 14.3 |
| O=C(Nc1ccc(O[C@@H]2CCN(C(=O)c3cccc(C(F)(F)F)c3)C2)cc1)C1CN(c2ccnnc2)C1 [Example 453, 1-(pyridazin-4-yl)-N-[4-({(3R)-1-[3-(trifluoromethyl)benzoyl]pyrrolidin-3-yl}oxy)phenyl]azetidine-3-carboxamide] | 105 |
| O=C(Nc1ccc(C2CCN(C(=O)Cc3ccc(Cl)c(Cl)c3)CC2)cc1)C1CN(c2cccnn2)C1 [Example 374, N-(4-{1-[(3,4-dichlorophenyl)acetyl]piperidin-4-yl}phenyl)-1-(pyridazin-3-yl)azetidine-3-carboxamide] | 6.32 |
| CC(C)C(=O)N1CC(Oc2ccc(NC(=O)C3CN(c4ccnnc4)C3)cc2)C1 [Example 264, N-(4-{[1-(2-methylpropanoyl)azetidin-3-yl]oxy}phenyl)-1-(pyridazin-4-yl)azetidine-3-carboxamide] | 100 |
| N#Cc1ncccc1N1CC(C(=O)Nc2ccc(C3CCN(C(=O)c4ccccc4)CC3)cc2)C1 [Example 737, N-[4-(1-benzoylpiperidin-4-yl)phenyl]-1-(2-cyanopyridin-3-yl)azetidine-3-carboxamide] | 1860 |
| O=C(Nc1ccc(OC2CCN(C(=O)c3cc(F)cc(F)c3)CC2)cc1)C1CN(c2cccnn2)C1 [Example 243, N-(4-{[1-(3,5-difluorobenzoyl)piperidin-4-yl]oxy}phenyl)-1-(pyridazin-3-yl)azetidine-3-carboxamide] | 9.28 |
| O=C(Nc1ccc(C2CCN(C(=O)c3ccc(Cl)cc3Cl)CC2)cc1)[C@H]1CCN(c2cccnn2)C1 [Example 674, (3S)-N-{4-[1-(2,4-dichlorobenzoyl)piperidin-4-yl]phenyl}-1-(pyridazin-3-yl)pyrrolidine-3-carboxamide] | 5.72 |
| O=C(NC1CN(c2cccnn2)C1)c1ccc(C2CCN(C(=O)c3cc(F)cc(F)c3)CC2)s1 [Example 816, 5-[1-(3,5-difluorobenzoyl)piperidin-4-yl]-N-[1-(pyridazin-3-yl)azetidin-3-yl]thiophene-2-carboxamide] | 188 |
| O=C(Nc1ccc(O[C@@H]2CCN(C(=O)c3cc(F)cc(F)c3)C2)cc1)[C@H]1CCN(c2cccnn2)C1 [Example 778, (3S)-N-(4-{[(3R)-1-(3,5-difluorobenzoyl)pyrrolidin-3-yl]oxy}phenyl)-1-(pyridazin-3-yl)pyrrolidine-3-carboxamide] | 19.7 |
| Cc1ccc(C(=O)N2CCC(c3ccc(NC(=O)[C@H]4CCN(c5cccnn5)C4)cc3)CC2)c(C)c1 [Example 672, (3S)-N-{4-[1-(2,4-dimethylbenzoyl)piperidin-4-yl]phenyl}-1-(pyridazin-3-yl)pyrrolidine-3-carboxamide] | 4.05 |
| O=C(Nc1ccc(OC2CCN(C(=O)c3cccc(OC(F)(F)F)c3)CC2)cc1)C1CN(c2cccnn2)C1 [Example 224, 1-(pyridazin-3-yl)-N-[4-({1-[3-(trifluoromethoxy)benzoyl]piperidin-4-yl}oxy)phenyl]azetidine-3-carboxamide] | 7.52 |
| CC(C)C(=O)N1CCC(S(=O)(=O)c2ccc(NC(=O)C3CN(c4cccnn4)C3)cc2)CC1 [Example 598, N-(4-{[1-(2-methylpropanoyl)piperidin-4-yl]sulfonyl}phenyl)-1-(pyridazin-3-yl)azetidine-3-carboxamide] | 208 |
| CC(=O)N1CCC(c2ccc(NC(=O)C3CN(c4cccnc4C)C3)cc2)CC1 [Example 178, N-[4-(1-acetylpiperidin-4-yl)phenyl]-1-(2-methylpyridin-3-yl)azetidine-3-carboxamide] | 300 |
| CC[C@H](C)C(=O)N1CC[C@@H](Oc2ccc(NC(=O)C3CN(c4ccnnc4)C3)cc2)C1 [Example 445, N-[4-({(3R)-1-[(2S)-2-methylbutanoyl]pyrrolidin-3-yl}oxy)phenyl]-1-(pyridazin-4-yl)azetidine-3-carboxamide] | 19.1 |

| Structure (SMILES) | IC50 [nM] |
| --- | --- |
| CC(C)(C)CC(=O)N1CCC(c2ccc(NC(=O)C3CN(c4cccnc4)C3)cc2)CC1 [Example 132, N-{4-[1-(3,3-dimethylbutanoyl)piperidin-4-yl]phenyl}-1-(pyridin-3-yl)azetidine-3-carboxamide] | 0.23 |
| O=C(Nc1ccc(OC2CCN(C(=O)C3CC3)CC2)cc1)C1CN(c2cccnn2)C1 [Example 251, N-(4-{[1-(cyclopropylcarbonyl)piperidin-4-yl]oxy}phenyl)-1-(pyridazin-3-yl)azetidine-3-carboxamide] | 7.87 |
| CC(=O)N1CCC(C(=O)N2CCC(c3ccc(NC(=O)C4CN(c5cccnn5)C4)cc3)CC2)CC1 [Example 383, N-(4-{1-[(1-acetylpiperidin-4-yl)carbonyl]piperidin-4-yl}phenyl)-1-(pyridazin-3-yl)azetidine-3-carboxamide] | 62.7 |
| CCC(C)(C)C(=O)N1CCC(Oc2ccc(NC(=O)C3CN(c4ccnnc4)C3)cc2)CC1 [Example 300, N-(4-{[1-(2,2-dimethylbutanoyl)piperidin-4-yl]oxy}phenyl)-1-(pyridazin-4-yl)azetidine-3-carboxamide] | 25.9 |
| CC(C)Cn1cc(-c2ccc(C(=O)N[C@H]3CCN(c4ccc(Cl)nn4)C3)s2)cn1 [Example 621, N-[(3S)-1-(6-chloropyridazin-3-yl)pyrrolidin-3-yl]-5-[1-(2-methylpropyl)-1H-pyrazol-4-yl]thiophene-2-carboxamide] | > 10000 |
| Cc1ncccc1N1CC(C(=O)Nc2ccc(C3CCN(C(=O)CC4C[C@@H]5CC[C@H]4C5)CC3)cc2)C1 (stereo partly drawn) [Example 161, N-(4-{1-[(1S,4R)-bicyclo[2.2.1]hept-2-ylacetyl]piperidin-4-yl}phenyl)-1-(2-methylpyridin-3-yl)azetidine-3-carboxamide] | 213 |
| CC(C)(C)C(=O)N1CC[C@@H](Oc2ccc(NC(=O)C3CN(c4ccnnc4)C3)cc2)C1 [Example 481, N-(4-{[(3R)-1-(2,2-dimethylpropanoyl)pyrrolidin-3-yl]oxy}phenyl)-1-(pyridazin-4-yl)azetidine-3-carboxamide] | 12.1 |
| O=C(Nc1ccc(C2CCN(C(=O)CCN3CCCCC3)CC2)cc1)C1CN(c2cccnc2)C1 [Example 130, N-(4-{1-[3-(piperidin-1-yl)propanoyl]piperidin-4-yl}phenyl)-1-(pyridin-3-yl)azetidine-3-carboxamide] | 1.81 |
| O=C(N[C@H]1CCN(c2cccnn2)C1)c1ccc(C2CCN(C(=O)C3CCOC3)CC2)s1 (stereo partly drawn) [Example 765, N-[(3S)-1-(pyridazin-3-yl)pyrrolidin-3-yl]-5-[1-(tetrahydrofuran-3-ylcarbonyl)piperidin-4-yl]thiophene-2-carboxamide] | 1020 |
| O=C(Nc1ccc(C2CCN(C(=O)c3ccc(O)cc3)CC2)cc1)[C@H]1CCN(c2cccnn2)C1 [Example 732, (3S)-N-{4-[1-(4-hydroxybenzoyl)piperidin-4-yl]phenyl}-1-(pyridazin-3-yl)pyrrolidine-3-carboxamide] | 29.9 |
| Cc1ncccc1N1CC(C(=O)Nc2ccc(C3CCN(C(=O)c4cccc(F)c4)CC3)cc2)C1 [Example 152, N-{4-[1-(3-fluorobenzoyl)piperidin-4-yl]phenyl}-1-(2-methylpyridin-3-yl)azetidine-3-carboxamide] | 116 |
| CC(C)(C)CC(=O)N1CCC(c2ccc(NC(=O)C3CN(c4ccnnc4)C3)c(F)c2)CC1 [Example 871, N-{4-[1-(3,3-dimethylbutanoyl)piperidin-4-yl]-2-fluorophenyl}-1-(pyridazin-4-yl)azetidine-3-carboxamide] | 3.61 |
| COc1cccc(C(=O)N2CCC(c3ccc(NC(=O)C4CN(c5cccnn5)C4)cc3)CC2)c1 [Example 346, N-{4-[1-(3-methoxybenzoyl)piperidin-4-yl]phenyl}-1-(pyridazin-3-yl)azetidine-3-carboxamide] | 3.8 |
| O=C(Nc1ccc(C2CCN(C(=O)CC(F)(F)F)CC2)cc1)C1CN(c2ccnnc2)C1 [Example 557, 1-(pyridazin-4-yl)-N-{4-[1-(3,3,3-trifluoropropanoyl)piperidin-4-yl]phenyl}azetidine-3-carboxamide] | 10.2 |
| O=C(Nc1ccc(O[C@@H]2CCN(C(=O)C3CCC(F)(F)CC3)C2)cc1)C1CN(c2ccnnc2)C1 [Example 482, N-[4-({(3R)-1-[(4,4-difluorocyclohexyl)carbonyl]pyrrolidin-3-yl}oxy)phenyl]-1-(pyridazin-4-yl)azetidine-3-carboxamide] | 32.6 |
| O=C(Nc1ccc(S(=O)(=O)C2CCN(C(=O)Cc3ccccc3)CC2)cc1)C1CN(c2cccnn2)C1 [Example 600, N-(4-{[1-(phenylacetyl)piperidin-4-yl]sulfonyl}phenyl)-1-(pyridazin-3-yl)azetidine-3-carboxamide] | 219 |

Reference: patent publication US20130303509A1, “NAMPT INHIBITORS” (AbbVie Inc., priority 2012, published 2013)
